Experiments:
U-87 MG [1] = assay: Inhibition of human U87MG cells after 48 hrs; type: functional, cell-based, U-87MG ATCC
SW480 [2] = assay: Inhibition of human SW480 cells after 48 hrs; type: functional, cell-based; details: SW480, 48 h
SW480 [3] = assay: Inhibition of human SW480 cells at >= IC50 after 48 hrs; type: functional
U-87 MG [4] = assay: Inhibition of human U87MG cells at >= IC50 after 48 hrs; type: functional, U-87MG ATCC

| Structure (SMILES) | IC50 (U-87 MG [1]) | IC50 (SW480 [2]) | inhibition (INH) (SW480 [3]) | inhibition (INH) (U-87 MG [4]) |
| --- | --- | --- | --- | --- |
| COc1ccc(C(=O)Nc2nonc2NC(=O)c2ccc(OC)cc2)cc1 | > 40 µM | > 40 µM |  |  |
| O=C(CN1CCOCC1)Nc1nonc1NC(=O)CN1CCOCC1 | > 200 µM | > 200 µM |  |  |
| O=C(Nc1nonc1NC(=O)C1CCCCC1)C1CCCCC1 | > 20 µM | > 20 µM |  |  |
| O=C(Nc1nonc1NC(=O)c1ccco1)c1ccco1 | > 200 µM | > 200 µM |  |  |
| O=C(Nc1nonc1NC(=O)C1CCCC1)C1CCCC1 | > 200 µM | > 200 µM |  |  |
| CC(C)=CC(=O)Nc1nonc1NC(=O)C=C(C)C | > 200 µM | > 200 µM |  |  |
| O=C(Nc1nonc1NC(=O)c1ccccc1)c1ccccc1 | 122 µM | 137 µM |  |  |
| O=C(Nc1ccccc1NC(=O)c1ccc(C(F)(F)F)cc1)c1ccc(C(F)(F)F)cc1 | > 8 µM | > 8 µM |  |  |
| O=C(Nc1n[nH]c(O)c1NC(=O)c1ccc(C(F)(F)F)cc1)c1ccc(C(F)(F)F)cc1 | > 200 µM | > 200 µM |  |  |
| O=C(Nc1cscc1NC(=O)c1ccc(C(F)(F)F)cc1)c1ccc(C(F)(F)F)cc1 | > 8 µM | > 8 µM |  |  |
| O=C(Nc1nonc1NC(=O)c1c(F)c(F)c(F)c(F)c1F)c1c(F)c(F)c(F)c(F)c1F | 25.5 µM | 17.2 µM |  |  |
| O=C(Nc1nonc1NC(=O)c1ccccc1C(F)(F)F)c1ccccc1C(F)(F)F | > 100 µM | 89.3 µM |  |  |
| O=C(Nc1nonc1NC(=O)c1cccc(C(F)(F)F)c1)c1cccc(C(F)(F)F)c1 | > 10 µM | > 10 µM |  |  |
| Nc1nonc1NC(=O)c1ccc(C(F)(F)F)cc1 | > 200 µM | > 200 µM |  |  |
| O=C(Nc1nonc1NC(=O)C(Cl)(Cl)Cl)C(Cl)(Cl)Cl | > 200 µM | > 200 µM |  |  |
| Cc1ccc(C(=O)Nc2nonc2NC(=O)c2ccc(C)cc2)cc1 | > 40 µM | > 40 µM |  |  |
| COc1cccc(C(=O)Nc2nonc2NC(=O)c2cccc(OC)c2)c1 | 70.7 µM | 71 µM |  |  |

Further lines, with some results ahead:

| IC50 (U-87 MG [1]) | IC50 (SW480 [2]) | Structure (SMILES) | inhibition (INH) (SW480 [3]) | inhibition (INH) (U-87 MG [4]) |
| --- | --- | --- | --- | --- |
| 24 µM | 39.7 µM | O=C(Nc1nonc1NC(=O)c1ccc(Cl)c(Cl)c1)c1ccc(Cl)c(Cl)c1 |  |  |
| 6 µM | 10 µM | O=C(Nc1nonc1NC(=O)c1ccc(F)cc1)c1ccc(F)cc1 | 50% |  |
| 14 µM | 8 µM | O=C(Nc1nonc1NC(=O)c1ccc(Cl)cc1)c1ccc(Cl)cc1 | 50% | 70% |
| 18.2 µM | 18.5 µM | O=C(Nc1nonc1NCc1ccc(C(F)(F)F)cc1)c1ccc(C(F)(F)F)cc1 |  |  |
| 20.6 µM | 22.9 µM | FC(F)(F)c1ccc(CNc2nonc2NCc2ccc(C(F)(F)F)cc2)cc1 |  |  |
| 14 µM | 4 µM | O=C(Nc1nonc1NC(=O)c1ccc(Br)cc1)c1ccc(Br)cc1 | 50% | 77% |
| 17.7 µM | 10.8 µM | O=C(Nc1nonc1NC(=O)c1cc(C(F)(F)F)cc(C(F)(F)F)c1)c1cc(C(F)(F)F)cc(C(F)(F)F)c1 |  |  |
| 17.1 µM | 7.4 µM | O=C(CCl)Nc1nonc1NC(=O)CCl |  |  |
| 14.6 µM | 11.2 µM | O=C(Nc1nonc1NC(=O)c1ccc(C(F)(F)F)cc1)c1ccc(C(F)(F)F)cc1 |  |  |
| 1 µM | 2 µM | O=C(Nc1nonc1NC(=O)c1ccc(I)cc1)c1ccc(I)cc1 | 50% | 70% |
